Assay results published in patent US20160229835A1, “NOVEL PYRIDYLOXYACETYL TETRAHYDROISOQUINOLINE COMPOUNDS USEFUL AS NAMPT INHIBITORS” (ELI LILLY AND COMPANY, priority 2013, published 2016).

Test system: A2780 Cancer Cells
Experiment: LC-MS Analysis of NAD+ and Carbohydrate Metabolites in A2780 Cancer Cells
Format: cell-based
Conditions: for Metabolite Levels (μM) DHAP / Metabolite Levels (μM) FBP / Metabolite Levels (μM) FP / Metabolite Levels (μM) NAD / Metabolite Levels (μM) SP: A2780 cells, 24 hours
Protocol: The purpose of this assay is to measure effects of NAMPT inhibitors on NAD^+ formation in cancer cells. LC-MS analysis of NAD^+ metabolites: nicotinamide mononucleotide (NMN), NAD^+, reduced nicotinamide adenine dinucleotide (NADH), and nicotinamide adenine dinucleotide phosphate (NADP) is performed on an HPLC system coupled to a Thermo Quantum Ultra triple quadrupole mass spectrometer operated in positive heated electrospray mode with selected reaction monitoring detection. For cell extracts, 50 μL of extract and 10 μL of 10 μM internal standard (IS) solution is transferred to a 96-well plate, dried under nitrogen and reconstituted in 50 μL of water. For tissue extracts, 20 μL of extract and 10 μL of IS solution are dried and reconstituted in 50 μL water. The IS solution contains 10 μM nicotinamide-d4 (C/D/N Isotopes), nicotinic acid-d4 (C/D/N Isotopes), nicotinamide mononucleotide-d4 (prepared by custom synthesis) and nicotinamide 1,N^6-ethenoadenine dinucleotide in methanol. The metabolites are separated on a Waters XBRIDGE™ Amide (2.1×50 mm, 3 μm) with an injection volume of 10 μL and a flow rate of 1 mL/minute using 10 mM ammonium acetate in 95% acetonitrile for mobile phase A and 10 mM ammonium acetate in 50% acetonitrile for mobile phase B. The gradient is as follows: 0 minutes, 0% B; 2.5 minutes, 70% B; 2.51 minutes, 100% B; 2.8 minutes, 100% B; 2.81 minutes, 0% B, 3.6 minutes, 0% B.
The purpose of this assay is to measure effects of NAMPT inhibitors on the levels of metabolites such as glucose-6-phosphate/fructose-6-phosphate/fructose-1-phosphate collectively as hexose phosphate (HP), fructose-1,6-bisphosphate (FBP), glyceraldehyde-3-phosphate (G3P), dihydroxyacetone phosphate (DHAP), 3-phosphoglycerate (3PG), 2-phosphoglycerate (2PG), phosphoenoylpyruvate (PEP), gluconate-6-phosphate (GN6P), xylulose-5-phosphate (X5P), ribulose-5-phosphate (Ru5P), ribose-5-phosphate (R5P), sedoheptulose-7-phosphate/sedoheptulose-1-phosphate collectively as sedoheptulose phosphate (SP), erythrose-4-phosphate (E4P), and α-ketoglutarate (α-KG) derived from glycolysis, the TCA cycle, and the pentose-phosphate pathway in tumor cells. Cells (50,000/well) are grown as described above in 100 μL of Dulbecco's Modified Eagle Medium supplemented with 10% FBS (dialyzed) and 25 mM glucose, and treated with a compound in triplicates in the presence or absence of 10 μM nicotinic acid. After 24 hours of treatment, the growth medium is removed and 200 μL of 80% methanol is added to each well. After incubation at room temperature for 15 minutes, the resulting extracts are transferred to 96-deep-well plates and washed twice with 200 μL of 80% methanol/water. Then, the plates are heat sealed and stored at −80° C., or dried and reconstituted in 100 μL of 25 μM ethylenediaminetetraacetic acid and injected into LC-MS for analysis.
The LC-MS analysis for carbohydrate metabolites is performed as follows. Chromatographic separations are performed with an HPLC system, which is coupled to an AB Sciex triple quadrupole LC-MS mass spectrometer. Analytes with phosphates are analyzed as follows. The samples are dried and reconstituted in ACN/water solutions and are separated on a Phenomenex Luna amino HPLC column (2.1×30 mm 3 μm) under the conditions as described by Yuan et al. (Nature Protocols, 2012, […], 872-881.). The mass spectrometer is operated under negative ESI MRM mode.

SMILES: CC(C)(O)CS(=O)(=O)Nc1ccc2c(c1)CCN(C(=O)COc1cccnc1)C2 [Example 1, 2-Hydroxy-2-methyl-N-[2-[2-(3-pyridyloxy)acetyl]-3,4-dihydro-1H-isoquinolin-6-yl]propane-1-sulfonamide]
- NAD formation (A2780 cancer cells, in words): dose-dependent inhibition
- glycolytic intermediates (HP, FBP, and DHAP/G3P) before and at the G3P dehydrogenase step (A2780 cancer cells, in words): dose-dependent increase
- intermediates (PEP, and PG) after the G3P dehydrogenase step (A2780 cancer cells, in words): dose-dependent decrease
- key intermediates of the pentose phosphate pathway including SP (A2780 cancer cells, in words): increased
- Metabolite Levels (μM) DHAP (compound 0.000508 μM): 0.6 µM
- Metabolite Levels (μM) FBP (compound 0.000508 μM): 2.5 µM
- Metabolite Levels (μM) FP (compound 0.000508 μM): 1.9 µM
- Metabolite Levels (μM) NAD (compound 0.000508 μM): 0.331 µM
- Metabolite Levels (μM) SP (compound 0.000508 μM): 0.3 µM
- Metabolite Levels (μM) DHAP (compound 0.00152 μM): 0.6 µM
- Metabolite Levels (μM) FBP (compound 0.00152 μM): 3.0 µM
- Metabolite Levels (μM) FP (compound 0.00152 μM): 2.1 µM
- Metabolite Levels (μM) NAD (compound 0.00152 μM): 0.244 µM
- Metabolite Levels (μM) SP (compound 0.00152 μM): 0.3 µM
- Metabolite Levels (μM) DHAP (compound 0.00457 μM): 0.6 µM
- Metabolite Levels (μM) FBP (compound 0.00457 μM): 4.1 µM
- Metabolite Levels (μM) FP (compound 0.00457 μM): 2.4 µM
- Metabolite Levels (μM) NAD (compound 0.00457 μM): 0.089 µM
- Metabolite Levels (μM) SP (compound 0.00457 μM): 0.4 µM
- Metabolite Levels (μM) DHAP (compound 0.0137 μM): 1.0 µM
- Metabolite Levels (μM) FBP (compound 0.0137 μM): 7.2 µM
- Metabolite Levels (μM) FP (compound 0.0137 μM): 3.0 µM
- Metabolite Levels (μM) NAD (compound 0.0137 μM): 0.027 µM
- Metabolite Levels (μM) SP (compound 0.0137 μM): 0.5 µM
- Metabolite Levels (μM) DHAP (compound 0.0412 μM): 2.0 µM
- Metabolite Levels (μM) FBP (compound 0.0412 μM): 19.3 µM
- Metabolite Levels (μM) FP (compound 0.0412 μM): 7.6 µM
- Metabolite Levels (μM) NAD (compound 0.0412 μM): 0.014 µM
- Metabolite Levels (μM) SP (compound 0.0412 μM): 1.3 µM
- Metabolite Levels (μM) DHAP (compound 0.123 μM): 3.8 µM
- Metabolite Levels (μM) FBP (compound 0.123 μM): 34.3 µM
- Metabolite Levels (μM) FP (compound 0.123 μM): 15.1 µM
- Metabolite Levels (μM) NAD (compound 0.123 μM): 0.008 µM
- Metabolite Levels (μM) SP (compound 0.123 μM): 2.6 µM
- Metabolite Levels (μM) DHAP (compound 0.37 μM): 5.0 µM
- Metabolite Levels (μM) FBP (compound 0.37 μM): 40.9 µM
- Metabolite Levels (μM) FP (compound 0.37 μM): 17.2 µM
- Metabolite Levels (μM) NAD (compound 0.37 μM): 0.010 µM
- Metabolite Levels (μM) SP (compound 0.37 μM): 3.2 µM
- Metabolite Levels (μM) DHAP (compound 1.111 μM): 5.4 µM
- Metabolite Levels (μM) FBP (compound 1.111 μM): 38.6 µM
- Metabolite Levels (μM) FP (compound 1.111 μM): 18.0 µM
- Metabolite Levels (μM) NAD (compound 1.111 μM): 0.008 µM
- Metabolite Levels (μM) SP (compound 1.111 μM): 3.3 µM
- Metabolite Levels (μM) DHAP (compound 3.333 μM): 5.2 µM
- Metabolite Levels (μM) FBP (compound 3.333 μM): 43.0 µM
- Metabolite Levels (μM) FP (compound 3.333 μM): 18.8 µM
- Metabolite Levels (μM) NAD (compound 3.333 μM): 0.007 µM
- Metabolite Levels (μM) SP (compound 3.333 μM): 3.4 µM
- Metabolite Levels (μM) DHAP (compound 10 μM): 5.5 µM
- Metabolite Levels (μM) FBP (compound 10 μM): 39.7 µM
- Metabolite Levels (μM) FP (compound 10 μM): 17.1 µM
- Metabolite Levels (μM) NAD (compound 10 μM): 0.008 µM
- Metabolite Levels (μM) SP (compound 10 μM): 2.8 µM
